According to patent publication US10358426B2, “Fungicidal substituted 2-[2-halogenalkyl-4-(phenoxy)-phenyl]-1-[1,2,4]triazol-1-yl-ethanol compounds” (BASF Agro B.V., priority 2011, dated 2019):

Tests used:
Septoria tritici [1] = assay: Preventative control of leaf blotch on wheat, inoculation next day (Septtr P1), greenhouse; type: in vivo; conditions: for Disease (%) at 150 pm Septtr P1: 150 ppm, Use Example 9, untreated control 90; for Disease(%) at 150 ppm Septtr P1: Use Example 6, untreated control 80
Septoria tritici [2] = assay: Preventative control of leaf blotch on wheat, inoculation seven days later (Septtr P7), greenhouse; type: in vivo
Septoria tritici [3] = assay: Curative control of leaf blotch on wheat (Septtr K7), greenhouse; type: in vivo; conditions: untreated control 90
Pyrenophora teres = type: cell-based; conditions: 32 ppm; Use Example 10 M6
Pyricularia oryzae = assay: microbe, parasite or virus in culture; type: cell-based; conditions: for activity at 2 ppm: Pyricularia oryzae, read-out: growth (relative growth in % of control)
Uncinula necator = assay: Control of powdery mildew on grape (Uncine P3), greenhouse; type: in vivo; conditions: untreated control 100
Procedure: Preventative Control of Leaf Blotch on Wheat Caused by Septoria tritici (Septtr P7) Grape cuttings were grown in pots to the 4 to 5 leaf stage. […] Three days later the treated plants were inoculated with spores of Uncinula necator by shaking heavily infestated stock plants over the treated pots. […] Preventative Fungicidal Control of Early Blight on Tomatoes (Alternaria solani) (Alteso P7)

Alternaria solani = assay: Preventative fungicidal control of early blight on tomatoes, inoculation seven days later (Alteso P7), greenhouse; type: in vivo; conditions: tomato; for Disease (%) at 63 ppm Alteso P7: untreated control 100; for Disease (%) at 16 ppm Alteso P7: untreated control 90
[4] = Use Example 11, untreated control 90
[5] = Use Example 8, untreated control 80
[6] = Use Example 6, untreated control 80

COC(Cn1cncn1)c1ccc(Oc2ccc(Cl)cc2)cc1Cl (centres unmarked) [DE3801233 compound 2, reference compound]
Disease (%) at 150 pm Septtr P1 (Septoria tritici [1]): 30% | Disease (%) at 16 ppm Septtr P7 (Septoria tritici [2]; [4]): 90% | Disease (%) at 16 ppm Septtr K7 (Septoria tritici [3]): 80%

OC(Cn1cncn1)c1ccc(Oc2ccc(Cl)cc2Cl)cc1C(F)(F)F (centres unmarked) [I-13]
growth (relative growth in % of control) (Pyrenophora teres): 1%

OC(Cn1cncn1)c1ccc(Oc2ccc(Cl)cc2)cc1C(F)(F)F (centres unmarked) [compound I-1]
Disease(%) at 150 ppm Septtr P1 (Septoria tritici [1]): 0% | Growth (%) at 0.5 ppm Pyrior (Pyricularia oryzae; Use Example 7): 47% | Disease (%) at 16 ppm Septtr P7 (Septoria tritici [2]; [5]): 2% | Disease (%) at 16 ppm Septtr P7 (Septoria tritici [2]; [4]): 3% | Disease (%) at 16 ppm Uncine P3 (Uncinula necator): 0% | Disease (%) at 63 ppm Alteso P7 (Alternaria solani): 3%

CC(O)(Cn1cncn1)c1ccc(Oc2ccc(Cl)cc2)cc1C(F)(F)F (centres unmarked) [compound I-2, 2-[4-(4-chloro-phenoxy)-2-trifluoromethyl-phenyl]-1-[1,2,4]triazol-1-yl-propan-2-ol]
Growth (%) at 0.5 ppm Pyrior (Pyricularia oryzae; Use Example 6): 68% | Growth (%) at 0.5 ppm Pyrior (Pyricularia oryzae; Use Example 7): 68% | Disease (%) at 16 ppm Septtr P7 (Septoria tritici [2]; [6]): 10% | Disease (%) at 16 ppm Alteso P7 (Alternaria solani): 15%

CCC(O)(Cn1cncn1)c1ccc(Oc2ccc(Cl)cc2)cc1C(F)(F)F (centres unmarked) [compound I-3, 2-[4-(4-chloro-phenoxy)-2-trifluoromethyl-phenyl]-1[1,2,4]triazol-1-yl-butan-2-ol]
Growth (%) at 0.5 ppm Pyrior (Pyricularia oryzae; Use Example 7): 58% | activity at 2 ppm (Pyricularia oryzae): ≤ 4%

CCCC(O)(Cn1cncn1)c1ccc(Oc2ccc(Cl)cc2)cc1C(F)(F)F (centres unmarked) [compound I-4]
Growth (%) at 0.5 ppm Pyrior (Pyricularia oryzae; Use Example 7): 19% | Disease (%) at 16 ppm Septtr P7 (Septoria tritici [2]; [5]): 25%

CC#CC(O)(Cn1cncn1)c1ccc(Oc2ccc(Cl)cc2)cc1C(F)(F)F (centres unmarked) [compound I-6, 2-[4-(4-chlorophenoxy)-2-(trifluoromethyl)phenyl]-1-(1,2,4-triazol-1-yl)pent-3-yn-2-ol]
Growth (%) at 0.5 ppm Pyrior (Pyricularia oryzae; Use Example 7): 37% | Disease (%) at 16 ppm Septtr P7 (Septoria tritici [2]; [5]): 0% | melting point: 137 °C

CC(C)C(O)(Cn1cncn1)c1ccc(Oc2ccc(Cl)cc2)cc1C(F)(F)F (centres unmarked) [compound I-7, 2-[4-(4-chlorophenoxy)-2-(trifluoromethyl)phenyl]-3-methyl-1-(1,2,4-triazol-1-yl)butan-2-ol]
melting point: 114 °C

COC(C)(Cn1cncn1)c1ccc(Oc2ccc(Cl)cc2)cc1C(F)(F)F (centres unmarked) [compound I-10, 1-[2-[4-(4-chlorophenoxy)-2-(trifluoromethyl)phenyl]-2-methoxy-propyl]-1,2,4-triazole]
activity at 2 ppm (Pyricularia oryzae): ≤ 4%

COC(Cn1cncn1)c1ccc(Oc2ccc(Cl)cc2)cc1C(F)(F)F (centres unmarked) [compound I-14]
Disease (%) at 150 pm Septtr P1 (Septoria tritici [1]): 0% | Disease (%) at 16 ppm Septtr P7 (Septoria tritici [2]; [4]): 15% | Disease (%) at 16 ppm Septtr K7 (Septoria tritici [3]): 20%

CC(O)(Cn1cncn1)c1ccc(Oc2ccc(F)cc2)cc1C(F)(F)F (centres unmarked) [compound I-16]
Disease (%) at 150 pm Septtr P1 (Septoria tritici [1]): 0%

OC(Cn1cncn1)c1ccc(Oc2ccc(Cl)cc2)cc1Cl (centres unmarked) [compound V6, reference compound]
Disease(%) at 150 ppm Septtr P1 (Septoria tritici [1]): 60% | Disease (%) at 16 ppm Septtr P7 (Septoria tritici [2]; [4]): 30% | Disease (%) at 16 ppm Uncine P3 (Uncinula necator): 40% | Disease (%) at 63 ppm Alteso P7 (Alternaria solani): 40%

CC(O)(Cn1cncn1)c1ccc(Oc2ccc(Cl)cc2)cc1Cl (centres unmarked) [compound V18, reference compound]
Growth (%) at 0.5 ppm Pyrior (Pyricularia oryzae; Use Example 6): 82% | Growth (%) at 0.5 ppm Pyrior (Pyricularia oryzae; Use Example 7): 82% | Disease (%) at 16 ppm Septtr P7 (Septoria tritici [2]; [6]): 60% | Disease (%) at 16 ppm Septtr P7 (Septoria tritici [2]; [4]): 67% | Disease (%) at 16 ppm Alteso P7 (Alternaria solani): 60%

CC(O)(Cn1cncn1)c1ccc(Oc2ccc(F)cc2)cc1Cl (centres unmarked) [compound V19, reference compound]
Disease (%) at 150 pm Septtr P1 (Septoria tritici [1]): 40% | Disease (%) at 16 ppm Septtr P7 (Septoria tritici [2]; [5]): 60%
